Measurements taken from patent EP4592286A1, “MACROCYCLIC NITROGEN-CONTAINING CROWN ETHER COMPOUND AND USE THEREOF AS PROTEIN KINASE INHIBITOR” (Artivila Biopharma, priority 2022, dated 2024).
pEC50, pIC50: −log10 of the molar value.

Key:
LRRK2 = LRRK2 (Homo sapiens, UniProt Q5S007); experiment: experiment of inhibiting kinase activity, LRRK2; format: biochemical; details: for inhibition at 0.1 µM: at 100 nM; for inhibition at 0.1 µM / inhibition at 0.01 µM: read-out: inhibition rate LRRK2; for pIC50: kinase activity assay, Table 3; for inhibition at 0.01 µM: at 10 nM
Procedure: (§1) The inhibition rates of tested compounds on JAK1, JAK2, JAK3, TYK2, CDK7, CDK9, EGFR (T790M) and LRRK2 kinases were measured. The test concentrations of the compounds were 10 nM and 100 nM, and the detection was performed by replicate wells. Alternatively, compounds were 3-fold serial diluted from 10 µM for 10 concentrations in replicate wells.

JAK1 [1] = target: T1, JAK1 (Homo sapiens, UniProt P23458); experiment: JAKs cell activity test: detection of pSTAT6 in THP1 cells induced by JAK1_IL-4; format: cell-based; details: pSTAT6, IL-4-induced THP1 cells
Procedure: Detection of pSTAT6 in THP1 cells induced by JAK1_IL-4
(§2) THP1 cells were collected by centrifugation, resuspended with 1×HBSS, counted and diluted to a certain cell density. They were inoculated in a 384-well plate and cultured in a saturated humidity incubator with 37 °C and 5% CO2. The compound (DMSO final volume of 0.3%) was added to THP1 cells (10 doses in duplicates) and cultured in a saturated humidity incubator with 37 °C and 5% CO2. hIL-4 was added to stimulate cells and cultured in a saturated humidity incubator with 37 °C and 5% CO2. The lysis solution was added and incubated at room temperature. According to the instructions of AlphaLISA SureFire Ultra p-STAT6 detection kit, the lysis solution was transferred to pSTAT6 detection system, and the ALPHA signal was read by PE Envision microplate reader. The inhibition rate Inh%=((DMSO-sample)/(DMSO-background))×100 was calculated. IC50 was obtained by fitting with GraphPad Prism non-linear regression equation, and y=Bottom+(Top-Bottom)/(1+10^((LogIC50-x)×hillslope)), where x was the concentration of the compound and y was the inhibition rate.

wild-type LRRK2 = target: T2, wild-type LRRK2 (Homo sapiens, UniProt Q5S007); experiment: detection of phosphorylated S935 in HEK293T overexpressing wild-type LRRK2; format: cell-based; details: pS935, HEK293T overexpressing wild-type LRRK2, 1.5 hours
T2 construct: pCMV-flag-WT LRRK2 (full-length); expressed in transfected cells; host or cells: HEK293T
Procedure: (§3) Detection of phosphorylated S935 in HEK293T Overexpressing full-length LRRK2 (G2019S) or wild-type LRRK2
(§4) HEK293T cells was inoculated into a 6-well plate and cultured overnight. The next day, they were transiently transfected with plasmid pcDNA5-FRT/TO-FLAG LRRK2 (G2019S, full-length) or pCMV-flag-WT LRRK2 (full-length) by using Superfect transfection reagent and cultured at 37°C and 5% CO2 for 20-24 hours. The next day, cells were collected, resuspended at a density of 0.48×10^6 cells/ml, and inoculated into a 384-well plate at 50 microliters/well. Compound or DMSO solutions (volume ratio of 0.5%) were added by Tecan, and cultured at 37°C and 5% CO2 for 1.5 hours. After 1.5 hours, the supernatant was discarded, 50 microliters of 8% PFA were added in each well to fix the cells, and the cells were incubated at room temperature for 1 hour. The plate was washed with EL406 plate washer for three times, with 115 microliters of PBST per well, and the culture plate was patted to dryness. The cells were blocked with 50 microliters/well of Licor Odyssey blocking solution (0.1% Tween 20) at room temperature for 1.5 hours. The blocking solution was discarded and the culture plate was patted to dryness. 20 microliters of primary antibody (1:1000(pS935), diluted with Licor Odyssey buffer (0.1% Tween20)) was added into each well, and incubated at 4 °C overnight. The next day, the first antibody was discarded and washing was performed with PBST for five times. 20 microliters of secondary antibody (diluted with Licor Odyssey buffer (0.1% Tween20) at 1:500 and stained with DNA at 1:2000) were added into each well, and incubated at room temperature for 1 hour. The second antibody was discarded, and washing was performed for three times with PBST. The fluorescence intensity was measured by LICOR Odyssey imager Scanner, and the data was analyzed.

JAK1 [2] = target: T1, JAK1; experiment: experiment of inhibiting kinase activity (Caliper mobility shift assay), JAK1; format: biochemical; details: for inhibition at 0.1 µM: at 100 nM; for pIC50: kinase activity assay, Table 3
Procedure, shortened: (§5)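 Steps: compound and kinase in 1× kinase buffer, 10 min at room temperature; ATP plus substrate added to start; reaction run at room temperature, then stopped. Conversion read by Caliper; IC50 from four-parameter variable-slope fit of % inhibition against log concentration.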

JAK2 = JAK2 (Homo sapiens, UniProt O60674); experiment: experiment of inhibiting kinase activity (Caliper mobility shift assay), JAK2; format: biochemical; details: for inhibition at 0.01 µM: at 10 nM; for inhibition at 0.01 µM / inhibition at 0.1 µM: read-out: inhibition rate JAK2; for inhibition at 0.1 µM: at 100 nM; for pIC50: kinase activity assay, Table 3
Procedure, shortened: as §5

JAK3 [3] = target: T3, JAK3 (Mus musculus, UniProt Q62137); experiment: JAKs cell activity test: JAK3_pSTAT5 in IL-2-induced CTLL-2 cells; format: cell-based; details: pSTAT5, IL-2-induced CTLL-2 cells
T3 construct: endogenous in cells; host or cells: CTLL-2
T3 sequence (Q62137 1-1100): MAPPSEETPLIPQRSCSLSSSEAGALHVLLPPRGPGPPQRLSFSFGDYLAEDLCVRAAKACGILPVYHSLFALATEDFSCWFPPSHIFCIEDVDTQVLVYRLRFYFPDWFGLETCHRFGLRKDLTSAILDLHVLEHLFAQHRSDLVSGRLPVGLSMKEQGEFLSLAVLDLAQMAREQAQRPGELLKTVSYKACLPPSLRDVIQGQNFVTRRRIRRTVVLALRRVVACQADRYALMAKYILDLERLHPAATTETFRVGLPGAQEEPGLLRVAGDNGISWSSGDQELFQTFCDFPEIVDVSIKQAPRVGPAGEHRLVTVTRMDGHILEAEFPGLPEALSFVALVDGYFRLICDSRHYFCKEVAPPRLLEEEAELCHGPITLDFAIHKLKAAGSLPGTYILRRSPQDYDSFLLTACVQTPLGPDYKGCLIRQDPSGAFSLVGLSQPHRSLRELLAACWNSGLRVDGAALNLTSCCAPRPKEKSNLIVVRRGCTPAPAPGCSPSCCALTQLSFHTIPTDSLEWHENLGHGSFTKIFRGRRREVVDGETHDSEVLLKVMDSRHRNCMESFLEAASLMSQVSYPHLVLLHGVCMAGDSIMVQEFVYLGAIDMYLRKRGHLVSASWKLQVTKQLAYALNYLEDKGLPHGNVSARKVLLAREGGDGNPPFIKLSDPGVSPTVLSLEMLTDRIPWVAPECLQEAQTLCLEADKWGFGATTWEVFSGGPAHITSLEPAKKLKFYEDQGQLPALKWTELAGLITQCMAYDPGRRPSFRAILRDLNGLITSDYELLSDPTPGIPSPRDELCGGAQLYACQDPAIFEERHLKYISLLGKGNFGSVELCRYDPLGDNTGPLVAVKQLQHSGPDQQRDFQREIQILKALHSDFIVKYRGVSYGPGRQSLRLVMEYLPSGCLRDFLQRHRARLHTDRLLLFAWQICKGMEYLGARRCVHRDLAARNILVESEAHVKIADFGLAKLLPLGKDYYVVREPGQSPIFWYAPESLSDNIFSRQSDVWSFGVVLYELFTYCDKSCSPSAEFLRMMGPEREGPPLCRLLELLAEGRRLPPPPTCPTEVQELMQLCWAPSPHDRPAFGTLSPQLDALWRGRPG
Procedure: as §2
JAK2_pSTAT5 was tesed in IL-3-induced BAF3 cells according to the above steps, and JAK3_pSTAT5 was tested in IL-2-induced CTLL-2 cells (without serum stimulation) according to the above steps.

JAK3 [4] = target: T4, JAK3 (Homo sapiens, UniProt P52333); experiment: experiment of inhibiting kinase activity (Caliper mobility shift assay), JAK3; format: biochemical; details: at 10 nM; read-out: inhibition rate JAK3
T4 sequence (P52333 1-1124): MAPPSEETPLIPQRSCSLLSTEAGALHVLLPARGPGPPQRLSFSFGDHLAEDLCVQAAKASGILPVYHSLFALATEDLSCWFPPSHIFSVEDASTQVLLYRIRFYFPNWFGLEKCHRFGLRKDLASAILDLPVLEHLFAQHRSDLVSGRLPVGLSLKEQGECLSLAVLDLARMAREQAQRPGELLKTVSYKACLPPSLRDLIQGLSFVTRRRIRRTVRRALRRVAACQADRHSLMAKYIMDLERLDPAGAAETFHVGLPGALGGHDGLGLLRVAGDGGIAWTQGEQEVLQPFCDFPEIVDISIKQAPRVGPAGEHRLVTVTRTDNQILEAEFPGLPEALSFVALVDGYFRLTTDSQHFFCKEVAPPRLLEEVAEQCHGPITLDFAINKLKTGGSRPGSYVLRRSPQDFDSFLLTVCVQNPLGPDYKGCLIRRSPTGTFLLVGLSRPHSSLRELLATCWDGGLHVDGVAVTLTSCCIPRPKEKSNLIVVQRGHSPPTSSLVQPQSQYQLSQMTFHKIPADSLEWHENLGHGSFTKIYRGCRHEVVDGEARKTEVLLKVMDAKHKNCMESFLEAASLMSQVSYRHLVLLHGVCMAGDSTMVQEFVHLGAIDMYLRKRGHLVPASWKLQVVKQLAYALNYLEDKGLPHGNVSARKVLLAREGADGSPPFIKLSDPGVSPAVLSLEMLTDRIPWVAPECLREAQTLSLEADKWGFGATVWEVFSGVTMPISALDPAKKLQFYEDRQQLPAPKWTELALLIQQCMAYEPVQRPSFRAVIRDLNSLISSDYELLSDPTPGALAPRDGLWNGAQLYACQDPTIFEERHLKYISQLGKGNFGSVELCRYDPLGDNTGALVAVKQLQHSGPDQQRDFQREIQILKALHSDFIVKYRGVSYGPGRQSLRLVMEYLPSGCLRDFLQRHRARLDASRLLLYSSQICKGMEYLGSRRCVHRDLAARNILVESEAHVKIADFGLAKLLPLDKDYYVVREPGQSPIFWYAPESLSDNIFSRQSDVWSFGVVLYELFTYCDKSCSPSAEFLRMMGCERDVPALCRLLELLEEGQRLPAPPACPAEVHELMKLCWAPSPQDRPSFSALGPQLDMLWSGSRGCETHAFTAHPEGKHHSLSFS
Procedure, shortened: as §5

LRRK2 (G2019S) = target: T5, LRRK2 (G2019S) (Homo sapiens, UniProt Q5S007, G2019S); experiment: detection of phosphorylated S935 in HEK293T overexpressing full-length LRRK2 (G2019S); format: cell-based; details: pS935, HEK293T overexpressing LRRK2 (G2019S), 1.5 hours
T5 construct: pcDNA5-FRT/TO-FLAG LRRK2 (G2019S, full-length); expressed in transfected cells; host or cells: HEK293T
Procedure: as §3, §4

TYK2 = TYK2 (Homo sapiens, UniProt P29597); experiment: experiment of inhibiting kinase activity, TYK2; format: biochemical; details: at 10 nM; read-out: inhibition rate TYK2
Procedure: as §1

Sequence of LRRK2 (Q5S007 whole entry): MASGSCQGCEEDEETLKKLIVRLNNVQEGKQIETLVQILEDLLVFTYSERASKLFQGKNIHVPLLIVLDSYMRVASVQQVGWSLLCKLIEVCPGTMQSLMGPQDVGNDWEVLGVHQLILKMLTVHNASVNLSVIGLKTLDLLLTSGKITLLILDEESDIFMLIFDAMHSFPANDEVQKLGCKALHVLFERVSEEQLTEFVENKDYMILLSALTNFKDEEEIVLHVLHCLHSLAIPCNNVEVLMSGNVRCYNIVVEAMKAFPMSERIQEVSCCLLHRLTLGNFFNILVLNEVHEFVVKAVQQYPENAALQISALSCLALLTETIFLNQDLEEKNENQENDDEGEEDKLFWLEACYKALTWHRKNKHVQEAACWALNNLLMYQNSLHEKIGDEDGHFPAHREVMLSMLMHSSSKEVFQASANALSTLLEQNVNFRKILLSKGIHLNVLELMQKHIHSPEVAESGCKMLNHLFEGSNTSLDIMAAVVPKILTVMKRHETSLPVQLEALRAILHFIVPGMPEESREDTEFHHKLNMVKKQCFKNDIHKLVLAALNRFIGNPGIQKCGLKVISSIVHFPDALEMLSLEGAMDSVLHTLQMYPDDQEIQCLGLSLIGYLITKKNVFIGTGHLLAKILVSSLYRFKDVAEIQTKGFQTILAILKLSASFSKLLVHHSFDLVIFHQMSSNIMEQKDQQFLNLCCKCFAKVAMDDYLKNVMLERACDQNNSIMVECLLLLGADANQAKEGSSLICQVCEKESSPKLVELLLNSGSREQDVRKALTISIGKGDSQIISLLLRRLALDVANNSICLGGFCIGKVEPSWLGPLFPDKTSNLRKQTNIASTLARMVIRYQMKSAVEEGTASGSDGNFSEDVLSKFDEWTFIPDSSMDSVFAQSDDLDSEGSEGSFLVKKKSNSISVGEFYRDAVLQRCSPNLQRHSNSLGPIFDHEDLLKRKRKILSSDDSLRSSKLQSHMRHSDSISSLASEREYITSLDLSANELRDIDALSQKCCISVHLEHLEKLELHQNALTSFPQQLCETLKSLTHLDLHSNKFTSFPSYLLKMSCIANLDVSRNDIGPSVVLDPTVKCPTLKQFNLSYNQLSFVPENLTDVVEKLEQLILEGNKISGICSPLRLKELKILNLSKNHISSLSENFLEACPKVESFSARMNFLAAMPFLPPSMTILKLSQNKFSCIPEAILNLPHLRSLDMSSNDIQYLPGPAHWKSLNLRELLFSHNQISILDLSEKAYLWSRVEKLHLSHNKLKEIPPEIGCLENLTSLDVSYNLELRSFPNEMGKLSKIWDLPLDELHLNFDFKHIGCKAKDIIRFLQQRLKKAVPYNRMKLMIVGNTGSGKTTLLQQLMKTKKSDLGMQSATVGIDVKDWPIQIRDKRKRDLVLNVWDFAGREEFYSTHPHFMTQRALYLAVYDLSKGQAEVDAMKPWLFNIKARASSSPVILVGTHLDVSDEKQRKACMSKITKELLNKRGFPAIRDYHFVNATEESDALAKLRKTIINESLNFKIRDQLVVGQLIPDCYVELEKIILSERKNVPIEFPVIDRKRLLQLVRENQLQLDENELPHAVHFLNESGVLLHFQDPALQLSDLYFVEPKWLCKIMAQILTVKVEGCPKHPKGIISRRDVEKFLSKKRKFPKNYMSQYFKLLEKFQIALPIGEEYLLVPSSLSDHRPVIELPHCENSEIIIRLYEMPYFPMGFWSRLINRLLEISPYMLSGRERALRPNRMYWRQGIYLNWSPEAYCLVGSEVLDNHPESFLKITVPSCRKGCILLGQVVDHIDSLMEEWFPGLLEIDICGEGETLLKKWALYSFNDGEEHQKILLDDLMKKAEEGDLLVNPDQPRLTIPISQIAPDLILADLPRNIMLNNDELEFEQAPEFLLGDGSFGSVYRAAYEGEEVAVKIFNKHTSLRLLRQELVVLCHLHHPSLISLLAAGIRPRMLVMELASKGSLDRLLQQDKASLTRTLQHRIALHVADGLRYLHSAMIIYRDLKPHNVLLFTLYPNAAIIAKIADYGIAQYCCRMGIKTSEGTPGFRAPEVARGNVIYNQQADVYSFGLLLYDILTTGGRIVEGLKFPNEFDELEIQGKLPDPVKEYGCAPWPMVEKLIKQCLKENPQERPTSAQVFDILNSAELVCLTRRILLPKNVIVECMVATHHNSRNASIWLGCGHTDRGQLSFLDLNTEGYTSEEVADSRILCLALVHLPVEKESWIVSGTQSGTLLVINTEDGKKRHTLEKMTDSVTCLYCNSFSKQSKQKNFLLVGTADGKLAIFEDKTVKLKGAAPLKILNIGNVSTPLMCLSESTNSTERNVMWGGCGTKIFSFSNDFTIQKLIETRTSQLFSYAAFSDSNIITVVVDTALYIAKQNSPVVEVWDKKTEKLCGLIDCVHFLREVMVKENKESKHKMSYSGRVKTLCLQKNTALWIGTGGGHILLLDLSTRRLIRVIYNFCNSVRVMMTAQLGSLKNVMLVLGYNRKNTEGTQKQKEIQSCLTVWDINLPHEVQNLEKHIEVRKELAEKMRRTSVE
T2 sequence (Q5S007 whole entry): as above
T1 sequence (P23458 whole entry): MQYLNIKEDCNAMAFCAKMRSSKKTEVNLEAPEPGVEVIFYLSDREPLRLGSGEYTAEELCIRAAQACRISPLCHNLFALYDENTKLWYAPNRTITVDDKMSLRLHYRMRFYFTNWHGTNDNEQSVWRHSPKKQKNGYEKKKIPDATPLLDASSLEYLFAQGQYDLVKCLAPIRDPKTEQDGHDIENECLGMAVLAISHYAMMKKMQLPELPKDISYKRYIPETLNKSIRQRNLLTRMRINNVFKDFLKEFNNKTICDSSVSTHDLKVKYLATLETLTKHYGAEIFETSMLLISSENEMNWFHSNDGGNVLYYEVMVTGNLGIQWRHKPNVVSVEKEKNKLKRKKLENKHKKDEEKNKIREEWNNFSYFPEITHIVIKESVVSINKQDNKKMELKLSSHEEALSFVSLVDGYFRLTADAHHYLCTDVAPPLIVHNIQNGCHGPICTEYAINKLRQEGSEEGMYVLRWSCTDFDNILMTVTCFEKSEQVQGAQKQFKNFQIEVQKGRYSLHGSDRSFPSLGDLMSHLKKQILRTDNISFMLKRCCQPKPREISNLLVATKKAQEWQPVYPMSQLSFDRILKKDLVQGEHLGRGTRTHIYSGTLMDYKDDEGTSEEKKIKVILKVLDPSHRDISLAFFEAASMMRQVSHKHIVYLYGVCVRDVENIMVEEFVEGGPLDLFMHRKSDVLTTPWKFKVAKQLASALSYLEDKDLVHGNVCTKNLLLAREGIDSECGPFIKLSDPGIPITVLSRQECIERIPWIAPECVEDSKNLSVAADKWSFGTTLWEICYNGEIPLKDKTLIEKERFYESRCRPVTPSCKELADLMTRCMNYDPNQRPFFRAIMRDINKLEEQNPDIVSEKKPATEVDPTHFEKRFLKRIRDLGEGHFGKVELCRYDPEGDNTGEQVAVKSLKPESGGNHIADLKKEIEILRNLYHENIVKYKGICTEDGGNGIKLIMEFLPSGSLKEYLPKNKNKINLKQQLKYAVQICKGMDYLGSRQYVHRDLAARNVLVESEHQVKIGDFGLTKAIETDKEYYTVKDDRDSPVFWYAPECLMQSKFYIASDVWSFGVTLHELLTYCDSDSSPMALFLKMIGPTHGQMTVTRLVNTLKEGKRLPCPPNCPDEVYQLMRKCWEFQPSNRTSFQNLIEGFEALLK
Sequence of JAK2 (O60674 whole entry): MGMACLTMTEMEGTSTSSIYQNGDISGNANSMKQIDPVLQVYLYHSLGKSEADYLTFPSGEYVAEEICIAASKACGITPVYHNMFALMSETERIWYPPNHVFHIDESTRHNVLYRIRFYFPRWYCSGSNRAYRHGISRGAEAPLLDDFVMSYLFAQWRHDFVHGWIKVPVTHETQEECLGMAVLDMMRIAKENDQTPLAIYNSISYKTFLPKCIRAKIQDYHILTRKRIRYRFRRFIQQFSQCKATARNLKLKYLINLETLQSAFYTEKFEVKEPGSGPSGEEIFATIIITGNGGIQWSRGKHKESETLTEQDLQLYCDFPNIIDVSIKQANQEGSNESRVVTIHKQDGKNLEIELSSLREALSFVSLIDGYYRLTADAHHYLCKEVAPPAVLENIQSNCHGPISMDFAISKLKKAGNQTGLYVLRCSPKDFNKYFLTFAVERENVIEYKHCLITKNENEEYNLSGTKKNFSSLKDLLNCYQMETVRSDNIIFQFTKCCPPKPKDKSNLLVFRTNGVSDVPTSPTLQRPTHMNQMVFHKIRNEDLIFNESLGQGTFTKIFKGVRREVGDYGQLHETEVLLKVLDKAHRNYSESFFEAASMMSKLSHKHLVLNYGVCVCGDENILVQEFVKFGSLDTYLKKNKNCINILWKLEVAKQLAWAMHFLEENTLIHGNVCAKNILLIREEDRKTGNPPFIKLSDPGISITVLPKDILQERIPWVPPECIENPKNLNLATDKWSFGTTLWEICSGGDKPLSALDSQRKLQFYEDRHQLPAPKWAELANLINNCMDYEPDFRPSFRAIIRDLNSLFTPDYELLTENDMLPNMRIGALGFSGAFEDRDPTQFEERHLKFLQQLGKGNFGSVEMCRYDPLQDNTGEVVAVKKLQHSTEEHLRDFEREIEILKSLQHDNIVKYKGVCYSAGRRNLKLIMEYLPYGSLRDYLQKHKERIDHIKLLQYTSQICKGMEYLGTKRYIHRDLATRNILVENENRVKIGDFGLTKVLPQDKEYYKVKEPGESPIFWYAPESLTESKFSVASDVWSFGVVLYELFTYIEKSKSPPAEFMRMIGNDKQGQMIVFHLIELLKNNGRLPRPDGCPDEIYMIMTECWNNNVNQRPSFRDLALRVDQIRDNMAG
T5 sequence (Q5S007 whole entry G2019S): as the sequence (Q5S007 whole entry) above, with G2019S counted along it

inhibition at 0.1 µM (LRRK2) [%] | pIC50 (LRRK2) | pEC50 (JAK1 [1]) | pEC50 (wild-type LRRK2) | inhibition at 0.1 µM (JAK1 [2]; read-out: inhibition rate JAK1) [%] | pIC50 (JAK1 [2]) | inhibition at 0.01 µM (JAK2) [%] | inhibition at 0.1 µM (JAK2) [%] | pIC50 (JAK2) | inhibition at 0.01 µM (JAK1 [2]; at 10 nM, read-out: inhibition rate JAK1) [%] | pEC50 (JAK3 [3]) | inhibition at 0.01 µM (JAK3 [4]) [%] | inhibition at 0.01 µM (LRRK2) [%] | pEC50 (LRRK2 (G2019S)) | inhibition at 0.01 µM (TYK2) [%] | SMILES
> 80 | > 7.30 | > 7.30 | > 6.30 | > 80 | > 7.30 | 40 to 79 | > 80 | > 7.30 |  |  |  |  |  |  | CN1CCOc2ccc(Nc3nc(-c4ccc(C(=O)NCC#N)cc4)c4cc[nH]c4n3)cc2OCC1 [Example 2, N-(cyanomethyl)-4-(2-((4-methyl-3,4,5,6-tetrahydro-2H-benzo[b][1,4,7]dioxazolin-9-yl)amino)-7H-pyrrolo[2,3-d]pyrimidin-4-yl)benzamide]
> 80 | > 7.30 | > 7.30 |  | > 80 | > 7.30 | > 80 | > 80 | > 7.30 | 40 to 79 | > 7.30 |  |  |  |  | CN1CCOc2ccc(Nc3nc(-c4cnn(C(CC#N)C5CCCC5)c4)c4cc[nH]c4n3)cc2OCC1 (centres unmarked) [Example 27, 3-cyclopentyl-3-(4-(2-((4-methyl-3,4,5,6-tetrahydro-2H-benzo[b][1,4,7]dioxazolin-9-yl)amino)-7H-pyrrolo[2,3-d]pyrimidin-4-yl)-1H-pyrazol-1-yl)propanenitrile]
 |  |  |  |  |  | 25 to 39 |  |  |  | 6.30 to 7.30 | > 80 |  |  |  | C=CC(=O)Nc1cccc(Nc2nc(Nc3ccc4c(c3)OCCN(C)CCO4)ncc2Cl)c1 [Example 55, N-(3-((5-chloro-2-((4-methyl-3,4,5,6-tetrahydro-2H-benzo[b][1,4,7]dioxazolin-9-yl)amino)pyrimidin-4-yl)amino)phenyl)acrylamide]
 | > 7.30 |  | > 6.30 |  |  | > 80 |  |  |  |  | > 80 | > 80 | > 6.30 | 40 to 79 | CN1CCOc2ccc(Nc3nc(Nc4ccccc4P(C)(C)=O)c4cc[nH]c4n3)cc2OCC1 [Example 73, dimethyl(2-((2-((4-methyl-3,4,5,6-tetrahydro-2H-benzo[b][1,4,7]dioxazolin-9-yl)amino)-7H-pyrrolo[2,3-d]pyrimidin-4-yl)amino)phenyl)phosphine oxide]
 | > 7.30 |  | > 6.30 |  |  | 40 to 79 |  |  |  |  |  | > 80 | > 6.30 | 40 to 79 | CC(C)S(=O)(=O)c1ccccc1Nc1nc(Nc2ccc3c(c2)OCCN(C)CCO3)ncc1C(F)(F)F [Example 82, N^4-(2-(isopropylsulfonyl)phenyl)-N^2-(4-methyl-3,4,5,6-tetrahydro-2H-benzo[b][1,4, 7]dioxazolin-9-yl)-5-(trifluoromethyl)pyrimidin-2,4-diamine]
 | > 7.30 |  | 5.30 to 6.00 |  |  |  |  |  |  |  |  | 40 to 79 |  |  | CN1CCOc2ccc(Nc3nc(NCCS(C)(=O)=O)c4cc[nH]c4n3)cc2OCC1 [Example 84, N^2-(4-methyl-3,4,5,6-tetrahydro-2H-benzo[b][1,4,7]dioxazolin-9-yl)-N^4-(2-(methylsulfonyl)ethyl)-7H-pyrrolo[2,3-d]pyrimidin-2,4-diamine]
